Experimental data published in patent publication US9782411B2, “{4-[5-(3-chloro-phenoxy)-oxazolo[5,4-d]pyrimidin-2-yl]-2,6-dimethyl-phenoxy}-acetic acid for use in the prevention or treatment of acute kidney injury” (Sanofi, priority 2013, dated 2017).
Several values for one entry are separate records, joined by “and”; a condition that tells them apart may be missing. Equal values may be shown once. Read-outs that look alike come from different tables or passages of the source.

Key:
S1P3 = S1P3 (Homo sapiens, UniProt Q99500); assay: FlipR (Chem) GPCRProfiler assay, S1P3; type: cell-based
Source text: (§1) The GPCRProfiler® assay from Millipore was used to determine the EC50 activity of compound A, BAF-312 and fingolimod on S1P1, S1P2, S1P3, S1P4 or S1P5 receptors. These assays used ChemiScreen GPCR stable cell lines.

S1P4 = target: T1, S1P4 (Homo sapiens, UniProt O95977); assay: FlipR (Chem) GPCRProfiler assay, S1P4; type: cell-based
T1 sequence (O95977 1-384): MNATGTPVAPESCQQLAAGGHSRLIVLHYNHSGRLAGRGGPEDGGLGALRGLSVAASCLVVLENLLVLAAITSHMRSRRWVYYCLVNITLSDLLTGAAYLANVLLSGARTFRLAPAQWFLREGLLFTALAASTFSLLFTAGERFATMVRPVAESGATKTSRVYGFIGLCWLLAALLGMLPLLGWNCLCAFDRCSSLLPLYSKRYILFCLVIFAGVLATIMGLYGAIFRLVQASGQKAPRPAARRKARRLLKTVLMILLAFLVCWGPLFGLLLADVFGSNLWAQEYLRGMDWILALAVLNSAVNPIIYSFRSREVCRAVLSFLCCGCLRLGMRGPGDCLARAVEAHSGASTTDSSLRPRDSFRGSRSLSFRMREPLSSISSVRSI
Source text: as §1

S1P1 = S1P1 (Homo sapiens, UniProt P21453); assay: PathHunter activated GPCR internalization assay, CHO; type: cell-based; design: host or cells: CHO (PathHunter); conditions: 0.5% FBS
Description: The compounds were tested in assay medium containing 0.5% FBS.

[1] = target: T2, human ERG (ether-a-go-go related gene) potassium channel (Homo sapiens, UniProt Q12809); assay: hERG assay (patch clamp, CHO cells); type: cell-based
T2 construct: host or cells: CHO (Chinese Hamster Ovary)
Description: Recombinant CHO (Chinese Hamster Ovary) cell line expressing the human ERG (ether-a-go-go related gene) potassium channel (Cytomyx Catalogue Number: CYL3002) has been cultured according to the following protocol. When necessary a culture has been restarted from frozen aliquots. The aliquots of frozen cells (1 mL) were rapidly warmed to 37° C. and first replated in a 75 cm^2 flask (Corning). The volume was then adjusted to 10 mL with the α-Minimum Essential Medium (Gibco 32571-028) containing 10% fetal calf serum. The medium has been renewed after 24 h and 1% geneticin (G418, Gibco 10131) has been added to prevent cellular derivation. […]
The hERG current was activated in response to voltage steps (2 s) from a holding potential of −80 mV to a test potential of +20 mV followed by a repolarization to −100 mV. Voltage steps were applied at 20 s intervals. hERG current was measured as the tail deactivating current at −100 mV. After a 3 minutes period for baseline measurements, compound A effects were measured 4-6 minutes after the change of solution.
The currents were analyzed using a database and analysis software DataXpress 1.0 (Axon Instruments/Molecular Devices).
Where “I” was the current measured after drug effect, “Irisperidone” was the current measured after the effect of the specific hERG-blocker and “Ibaseline” was the current measured before the superfusion of drug.

[2] = system: conscious telemetered dogs; assay: Dog telemetry study (cardiovascular function); type: in vivo
Source text: The purpose of this study was to assess the potential effect of compound A on the cardiovascular function (blood pressure, heart rate and ECG) in conscious telemetered dogs over a 24-hour period post dosing.
Conscious freely moving dogs (Marshall Farms, n=4, 2 males and 2 females, 6.9 to 10.8 kg body weight and 44 to 64-months) received an oral or intravenous dose of the negative control article (i.e., aqueous solution of 0.5% (w/w) hydroxyethylcellulose/0.6% (w/w) polysorbate 80 for oral route, or aqueous solution of 20% Captisol, pH 7.5 to 8) followed by compound A at 30 and 100 mg/kg for oral route as suspensions in negative control article, or 10 and 30 mg/kg for i.v. route as solution in negative control article, according to a rising dose study design with at least a 4-day washout period between each administration (5 mL/kg for oral route or for 30-min infusion into the jugular vein). Arterial blood pressure and lead II ECG signals (Transmitters from Data Science, USA) were continuously recorded on each treatment day from approximately 2 hours before dosing up to 24 hours after dosing. The following parameters were analyzed at several time points: arterial blood pressure (systolic, diastolic and mean), heart rate, electrocardiographic parameters of RR, PQ (=PR), QT interval durations and QRS complex duration as well as body temperature. […]

CD1 mice = assay: Mouse model of rhabdomyolysis-induced renal injury (glycerol); type: in vivo; conditions: 10 mg/kg p.o. 1 hour before glycerol; 24 h
Description: Swiss (CD1) male mice (n=5-15, 13-14 weeks old) (Charles River Laboratory, France) received oral administration of compound A at 0.3, 1, 3 and 10 mg/kg or vehicle article (methylcellulose 0.6%—tween 80 0.5% in water) within a volume of administration of 10 mL/kg, one hour before glycerol injection. Intramuscular injection of glycerol (50% in PBS v/v) or vehicle article (PBS) was performed into hindlimbs (2 injections per leg, gastrocnemius and rectus femoris) at 8 mL/kg under pentobarbital (33 mg/kg) and ketamine (40 mg/kg) anaesthesia. Twenty-four hours later, blood was collected, centrifuged (3000 g, 10 min) and heparinised plasma frozen for creatinine evaluation using a biochemical analyser (P400, Horiba, France). Results are expressed as mean+/−s.e.m.

[3] = single experiments (footnote), read-out: EC50, internalisation assay, values of the 2 separate experiments
[4] = starred values are means of 2 separate experiments, read-out: EC50, Internalization, CHO

S1P1, sequence (P21453 whole entry): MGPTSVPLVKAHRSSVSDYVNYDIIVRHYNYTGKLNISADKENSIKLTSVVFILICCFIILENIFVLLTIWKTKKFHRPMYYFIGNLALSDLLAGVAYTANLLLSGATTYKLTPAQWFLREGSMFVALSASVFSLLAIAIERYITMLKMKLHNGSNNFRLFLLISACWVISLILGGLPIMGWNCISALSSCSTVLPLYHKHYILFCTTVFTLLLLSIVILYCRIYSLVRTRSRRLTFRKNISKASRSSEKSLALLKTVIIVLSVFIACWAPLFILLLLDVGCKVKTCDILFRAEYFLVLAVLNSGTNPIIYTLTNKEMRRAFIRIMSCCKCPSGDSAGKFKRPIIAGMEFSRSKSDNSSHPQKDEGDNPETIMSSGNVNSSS
S1P3, sequence (Q99500 whole entry): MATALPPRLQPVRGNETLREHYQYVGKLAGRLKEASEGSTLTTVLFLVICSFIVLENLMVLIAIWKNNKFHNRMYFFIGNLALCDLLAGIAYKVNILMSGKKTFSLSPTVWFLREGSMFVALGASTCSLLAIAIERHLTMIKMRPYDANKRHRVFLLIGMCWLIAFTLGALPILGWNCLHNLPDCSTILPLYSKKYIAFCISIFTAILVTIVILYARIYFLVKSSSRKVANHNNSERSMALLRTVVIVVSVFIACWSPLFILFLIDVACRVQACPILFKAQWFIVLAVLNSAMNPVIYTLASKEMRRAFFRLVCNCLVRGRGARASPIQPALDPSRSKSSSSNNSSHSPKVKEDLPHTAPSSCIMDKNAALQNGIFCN
T2 sequence (Q12809 whole entry): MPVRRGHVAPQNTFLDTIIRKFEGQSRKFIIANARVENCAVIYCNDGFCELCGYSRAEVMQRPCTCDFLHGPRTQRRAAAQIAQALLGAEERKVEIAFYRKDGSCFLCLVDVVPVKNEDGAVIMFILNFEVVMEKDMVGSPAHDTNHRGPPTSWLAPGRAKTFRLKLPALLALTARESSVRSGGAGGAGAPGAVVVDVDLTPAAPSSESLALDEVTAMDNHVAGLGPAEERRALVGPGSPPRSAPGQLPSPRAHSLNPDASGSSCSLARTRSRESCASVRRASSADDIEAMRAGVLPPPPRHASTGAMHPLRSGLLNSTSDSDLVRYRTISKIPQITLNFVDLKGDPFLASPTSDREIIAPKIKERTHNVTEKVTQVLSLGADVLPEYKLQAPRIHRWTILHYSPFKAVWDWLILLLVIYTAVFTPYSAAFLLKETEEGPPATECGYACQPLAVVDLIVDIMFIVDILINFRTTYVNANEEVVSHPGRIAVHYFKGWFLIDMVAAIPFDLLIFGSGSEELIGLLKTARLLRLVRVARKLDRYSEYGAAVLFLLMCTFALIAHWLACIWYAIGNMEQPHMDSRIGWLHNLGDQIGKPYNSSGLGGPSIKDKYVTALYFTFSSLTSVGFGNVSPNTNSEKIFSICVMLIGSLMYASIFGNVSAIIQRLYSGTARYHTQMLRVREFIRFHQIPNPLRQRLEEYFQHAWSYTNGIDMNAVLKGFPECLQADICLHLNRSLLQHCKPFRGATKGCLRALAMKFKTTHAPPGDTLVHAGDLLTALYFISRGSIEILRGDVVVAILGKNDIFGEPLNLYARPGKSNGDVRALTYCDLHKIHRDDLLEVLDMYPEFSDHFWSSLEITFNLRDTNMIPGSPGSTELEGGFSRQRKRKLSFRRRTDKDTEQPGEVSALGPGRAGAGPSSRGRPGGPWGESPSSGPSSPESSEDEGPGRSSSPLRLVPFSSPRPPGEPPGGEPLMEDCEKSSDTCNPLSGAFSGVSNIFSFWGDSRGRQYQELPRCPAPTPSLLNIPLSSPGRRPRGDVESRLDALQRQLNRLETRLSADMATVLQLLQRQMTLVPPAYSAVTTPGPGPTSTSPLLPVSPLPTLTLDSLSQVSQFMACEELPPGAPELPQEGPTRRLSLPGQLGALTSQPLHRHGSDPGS

EC50 (S1P3) [nM]	EC50 (S1P4) [nM]	EC50 (S1P1; [3])	EC50 (S1P1; [4]) [nM]	Compound	IC50 [1] [nM]	Effect on heart rate, atrioventricular block or any other ECG parameters ([2]; 30 or 100 mg/kg p.o. and 10 or 30 mg/kg i.v. (infusion over 30 min))	Change in blood pressure ([2]; at both doses)	Prevention of deterioration of renal function (plasma creatinine) (CD1 mice) [%]
> 30000	> 30000	< 0.5 nM and 0.67 nM	< 0.59	CCc1cc(/C(C)=N/OCc2ccc(C3CCCCC3)c(C(F)(F)F)c2)ccc1CN1CC(C(=O)O)C1 [BAF-312]	–	–	–	–
> 30000	> 30000	160 nM and 266 nM	213	Cc1cc(-c2nc3cnc(Oc4cccc(Cl)c4)nc3o2)cc(C)c1OCC(=O)O [Compound A, {4-[5-(3-chloro-phenoxy)-oxazolo[5,4-d]pyrimidin-2-yl]-2,6-dimethyl-phenoxy}-acetic acid]	> 30000	No effect	no significant change	~85
